Reference: patent US10100076B2, “Modified nucleosides for the treatment of viral infections and abnormal cellular proliferation” (priority 2000, dated 2018)
Like-named read-outs stand apart in the source and are kept apart here.

Legend:
[1] = test system: CEM cells; experiment: cells; type: cell-based, human; settings: for % inhibition at 100 μM, CEM Cells: four day incubation, MTT
Method: (§1) The cytotoxicity testing as performed herein is a standard technique. Briefly, cells are seeded in 96-well plates at various concentrations (dependent on cell type, duration of assay), typically at 5×10^3 cells per well, in the presence of increasing concentrations of the test compound (0, 1, 3, 10, 33, and 100 μM). After three (Vero cells), or four (CEM cells), or five (PBM cells) day-incubation, cell viability and mitochondrial activity are measured by adding the MTT-dye (Promega), followed by a 8 hours incubation. Afterwards the plates containing the dye are fixed by adding a stop-solution followed by another eight hour incubation. Finally, absorbance is read at 570 nm. Such methodologies are well described and available from the manufacturer (Promega).

[2] = test system: PBM cells; experiment: cells; type: cell-based, human; settings: for % inhibition at 100 μM, PBM cells: five day incubation, MTT
Method: as §1

[3] = test system: Vero cells; experiment: cells; type: cell-based; settings: for % inhibition at 100 μM, Vero Cells: three day incubation, MTT
Method: as §1

[4] = test system: human malignant T and B cells and various tumor cell lines; experiment: Toxicity profile against human malignant T and B cells and various tumor cell lines (MTT, IC50); type: cell-based; settings: for IC50: MTT assay, 3-5 days
Method: as §1, with “Cytotoxicity” for “The cytotoxicity”, “here are” for “herein is a”, “techniques.” for “technique.”, “Depending on the cell-type incubation with test compound can vary in time, but is usually within the range of 3 to 5 days. Cell” for “After three (Vero cells), or four (CEM cells), or five (PBM cells) day-incubation, cell”, “eight” for “a 8”, “hours of” for “hours”
In order to explore the complete potential of this compound, a set of human malignant T and B cells and various tumor cell lines were incubated with […] at varying concentrations, and after the absorbance was read, an IC50 value was calculated. As a control, Ara-C, 5FU, and cyclo-heximide was taken alongside (Table 26).

[5] = test system: SUDHL-1 cells (human anaplastic large T-cell lymphoma cell line); experiment: Prevention of β-D-GA-related cytotoxicity by natural nucleosides, SUDHL-1 cells; type: cell-based
Method: The prevention of β-D-GA-related cytotoxicity in CEM cells (human T-cell lymphoma) and in the SUDHL-1 cells (human anaplastic large T-cell lymphoma cell line) was studied by adding natural nucleosides. This experiment was initiated by adding 50 μM of natural nucleosides into the media, together with increasing concentration of β-D-GA. CEM cells were seeded at 2500 cells per well and incubated for 4 days (=fast growing cell line with a doubling time of 1.3 days). SUDHL-1 cells were seeded at 10,000 cells/well, and incubated for 3 days (=slow growing cell line, doubling time 3 days). The result of this experiment is plotted in FIG. 4.

[6] = test system: HCV replicon; experiment: HCV replicon system in Huh7 cells, replicon RNA by Q-RT-PCR (HCV ΔCt, ΔΔCt); type: cell-based, hepatitis C virus; settings: Table 24
[7] = test system: rRNA (host RNA polymerase I product); experiment: rRNA ΔCt in Huh7 replicon cells (effect on host RNA polymerases); settings: Table 24, average of n
Source text: In a typical setting, a compound might reduce both the host RNA polymerase activity and the replicon-encoded polymerase activity. Therefore, quantification of rRNA (or any other host RNA polymerase I product) or beta-actin mRNA (or any other host RNA polymerase II) and comparison with RNA levels of the no-drug control is a relative measurement of the effect of the test compound on host RNA polymerases.
With the availability of both the HCV ΔCt data and the rRNA ΔCt, a specificity parameter can be introduced. This parameter is obtained by subtracting both ΔCt values from each other.

[8] = test system: Influenza A (H1N1); experiment: microbe, parasite or virus in culture; type: cell-based; settings: Influenza A virus, H1N1, MDCK; Initial Test, CPE Inhibition (Visual)
[9] = test system: Influenza A (H3N2); experiment: microbe, parasite or virus in culture; type: cell-based; settings: Influenza A virus, H3N2, MDCK; Initial Test, CPE Inhibition (Visual)
[10] = test system: Influenza B; experiment: microbe, parasite or virus in culture; type: cell-based; settings: Influenza B virus, MDCK; Initial Test, CPE Inhibition (Visual)
[11] = test system: Respiratory Syncytial Virus A; experiment: microbe, parasite or virus in culture; type: cell-based, Respiratory Syncytial Virus strain A2
[12] = test system: Parainfluenza Type 3 Virus; experiment: organism not typed; type: cell-based, Parainfluenza type 3 virus strain 14702; settings: MA104, read-out: EC50, Parainfluenza Type 3 Virus
[13] = test system: Influenza A (H1N1); experiment: microbe, parasite or virus in culture; type: cell-based; settings: Initial Test, Neutral Red
[14] = test system: Influenza A (H3N2); experiment: microbe, parasite or virus in culture; type: cell-based; settings: Influenza A virus, H3N2, MDCK; Initial Test, Neutral Red
[15] = test system: Influenza B; experiment: microbe, parasite or virus in culture; type: cell-based; settings: Influenza B virus, MDCK; Initial Test, Neutral Red
[16] = test system: Respiratory Syncytial Virus A; experiment: microbe, parasite or virus in culture; type: cell-based; settings: Initial Test, Neutral Red
[17] = test system: Parainfluenza Type 3 Virus; experiment: organism not typed; type: cell-based; settings: Initial Test, Neutral Red
[18] = CEM (human T-cell lymphoma cell line), MTT assay, incubation 3-5 days, read-out: Toxicity IC50
[19] = PBM (human peripheral blood mononuclear cells), MTT assay, incubation 3-5 days, read-out: Toxicity IC50
[20] = Vero (African green monkey kidney cell line), MTT assay, incubation 3-5 days, read-out: Toxicity IC50
[21] = BL41 (human B-cell lymphoma cell line), read-out: Toxicity IC50
[22] = H9 (human T-cell lymphoblast cell line), read-out: Toxicity IC50
[23] = HEPG2 (human liver carcinoma cell line), read-out: Toxicity IC50
[24] = JY (human B-cell lymphoma cell line, EBV transformed), read-out: Toxicity IC50
[25] = LNCaP (human prostate adenocarcinoma cell line), read-out: Toxicity IC50
[26] = MCF-7 (human breast carcinoma cell line), read-out: Toxicity IC50
[27] = SK-MEL-28 (human melanoma cell line), read-out: Toxicity IC50
[28] = SK-MES-1 (human lung squamous carcinoma cell line), read-out: Toxicity IC50
[29] = SupT1 (human T-cell lymphoblast cell line), read-out: Toxicity IC50
[30] = SUDHL-1 (human anaplastic large T-cell lymphoma cell line), read-out: Toxicity IC50

SMILES: O=c1[nH]cc(F)c(=O)[nH]1 [5FU]
- IC50 [1, 18]: 90.5 µM
- IC50 [2, 19]: 13.7 µM
- IC50 [3, 20]: 65 µM
- IC50 [4, 21]: 24.1 µM
- IC50 [4, 22]: 14.2 µM
- IC50 [4, 23]: 40.6 µM
- IC50 [4, 24]: 7.5 µM
- IC50 [4, 25]: 22.1 µM
- IC50 [4, 26]: 43.7 µM
- IC50 [4, 27]: 11.2 µM
- IC50 [4, 28]: 13.1 µM
- IC50 [4, 29]: 53.6 µM

SMILES: Nc1ccn([C@@H]2O[C@H](CO)[C@@H](O)[C@@H]2O)c(=O)n1 [Ara-C, reference compound]
- IC50 [1, 18]: 0.6 µM
- IC50 [2, 19]: 7 µM
- IC50 [3, 20]: 0.8 µM
- IC50 [4, 30]: 3.7 µM

SMILES: Nc1ccn([C@H]2C[C@H](O)[C@@H](CO)O2)c(=O)n1 [2′-Deoxycytidine]
- prevention of β-D-GA toxicity, in words ([5]; 50 μM natural nucleoside, SUDHL-1 cells, 3 days, FIG. 4): modest preventive activity effect

SMILES: Nc1nc(=O)n([C@@H]2C[C@H](CO)[C@@H](O)[C@H]2O)cc1F [β-D-GA]
- IC50 [1]: 1.9 µM
- cytotoxic effect on CEM cells, in words [1]: selective cytotoxic effect on CEM cells
- IC50 [1, 18]: 2.9 µM
- IC50 [2]: > 100 µM
- % inhibition at 100 μM, PBM cells [2]: 11.3%
- IC50 [2, 19]: > 100 µM
- IC50 [3]: > 57.4 µM
- IC50 [3, 20]: > 100 µM
- Ave. ΔΔCt ([6]; HCV RNA ΔCt minus rRNA ΔCt): 3.93
- Ave. HCV RNA ΔCt ([6]; HCV replicon in Huh7 cells, average of n): 6.04
- Ave. rRNA ΔCt [7]: 2.10
- IC50 [4, 21]: < 1 µM
- IC50 [4, 22]: 1.4 µM
- IC50 [4, 23]: > 100 µM
- IC50 [4, 24]: 3 µM
- IC50 [4, 25]: 45.7 µM
- IC50 [4, 26]: > 100 µM
- IC50 [4, 27]: > 100 µM
- IC50 [4, 28]: > 100 µM
- IC50 [4, 30]: 0.7 µM
- IC50 [4, 29]: 0.3 µM
- toxicity in tumor cell panel, in words ([4]; human malignant T and B cells vs PBM and non-T or B neoplastic cells): potent toxicity in human malignant T and B cells, but not in human PBM cells and non-T or B neoplastic cells
- effectiveness against slow vs fast growing cells, in words ([5]; SUDHL-1 and CEM cells): equally effective against slower growing SUDHL-1 cells and fast growing CEM cells

SMILES: Nc1nc(=O)n([C@H]2C[C@@H](CO)[C@H](O)[C@@H]2O)cc1F [β-L-GA]
- IC50 [1]: > 100 µM
- % inhibition at 100 μM, CEM Cells [1]: 1.1%
- IC50 [2]: > 100 µM
- % inhibition at 100 μM, PBM cells [2]: −113.2%
- IC50 [3]: > 100 µM
- % inhibition at 100 μM, Vero Cells [3]: 27.9%

SMILES: Nc1nc(=O)n([C@H]2C[C@@H](CO)[C@H](O)[C@@H]2O)cc1I [β-L-GH]
- IC50 [1]: > 100 µM
- % inhibition at 100 μM, CEM Cells [1]: 19.7%
- IC50 [2]: > 100 µM
- % inhibition at 100 μM, PBM cells [2]: −52.1%
- IC50 [3]: > 100 µM
- % inhibition at 100 μM, Vero Cells [3]: 27.0%

SMILES: O=c1[nH]c(=O)n([C@@H]2O[C@H](CO)[C@@H](O)[C@H]2O)cc1O [β-D-CL, 5-hydroxyuridine]
- EC50 [8]: > 5 µM
- EC50 [9]: > 5 µM
- EC50 [10]: > 5 µM
- antiviral activity against RSV, in words [11]: potent in-vitro anti-RSV compound
- SI (Selectivity Index), RSV ([11]; Initial Test, CPE Inhibition (Visual)): 150
- EC50 ([11]; human respiratory syncytial virus, MA104, read-out: EC50, RSV): 0.5 µM
- EC50 [12]: 90 µM
- EC50 ([13]; Influenza A virus, H1N1, MDCK): 8 µM
- SI (Selectivity Index), Influenza A (H1N1) [13]: 1.1
- EC50 [14]: > 5 µM
- EC50 [15]: > 5 µM
- SI (Selectivity Index), RSV [16]: >170
- EC50 ([16]; human respiratory syncytial virus, MA104): < 0.5 µM
- SI (Selectivity Index), Parainfluenza Type 3 Virus [17]: 1
- EC50 ([17]; MA104): 40 µM

SMILES: O=c1ccn([C@@H]2CC[C@H](CO)C2)c(=O)[nH]1 [β-L-GC]
- IC50 [1]: > 100 µM
- % inhibition at 100 μM, CEM Cells [1]: −1.2%
- IC50 [2]: > 100 µM
- % inhibition at 100 μM, PBM cells [2]: −53.2%
- IC50 [3]: > 100 µM
- % inhibition at 100 μM, Vero Cells [3]: −13.4%

SMILES: Nc1ccn([C@H]2C[C@@H](CO)[C@H](O)[C@@H]2O)c(=O)n1 [β-L-GD]
- IC50 [1]: > 100 µM
- % inhibition at 100 μM, CEM Cells [1]: −79.7%
- IC50 [2]: > 100 µM
- % inhibition at 100 μM, PBM cells [2]: −12.9%
- IC50 [3]: > 100 µM
- % inhibition at 100 μM, Vero Cells [3]: 0.8%

SMILES: C[C@@H]1C[C@@H]([C@H](O)CC2CC(=O)NC(=O)C2)C(=O)[C@@H](C)C1 [cyclo-heximide]
- IC50 ([1]; Homo sapiens, CCRF-CEM, read-out: Toxicity IC50): 0.1 µM
- IC50 ([2]; Homo sapiens, PBMC, read-out: Toxicity IC50): 2.6 µM
- IC50 ([3]; Chlorocebus sabaeus, Vero, read-out: Toxicity IC50): 2.1 µM
- IC50 ([4]; Homo sapiens, B-cell, read-out: Toxicity IC50, H9 (human T-cell lymphoblast cell line)): 1 µM
- IC50 ([4]; Homo sapiens, B-cell, read-out: Toxicity IC50, JY (human B-cell lymphoma cell line, EBV transformed)): 0.8 µM
- IC50 ([4]; Homo sapiens, BL-41, read-out: Toxicity IC50, BL41 (human B-cell lymphoma cell line)): 0.3 µM
- IC50 ([4]; Homo sapiens, HepG2, read-out: Toxicity IC50, HEPG2 (human liver carcinoma cell line)): 3.6 µM
- IC50 ([4]; Homo sapiens, LNCaP, read-out: Toxicity IC50, LNCaP (human prostate adenocarcinoma cell line)): 2.4 µM
- IC50 ([4]; Homo sapiens, MCF7, read-out: Toxicity IC50, MCF-7 (human breast carcinoma cell line)): 1.5 µM
- IC50 ([4]; Homo sapiens, SK-MEL-28, read-out: Toxicity IC50, SK-MEL-28 (human melanoma cell line)): 1 µM
- IC50 ([4]; Homo sapiens, SK-MES-1, read-out: Toxicity IC50, SK-MES-1 (human lung squamous carcinoma cell line)): 3.4 µM
- IC50 ([4]; Homo sapiens, SU-DHL-1, read-out: Toxicity IC50, SUDHL-1 (human anaplastic large T-cell lymphoma cell line)): 0.3 µM
- IC50 ([4]; Homo sapiens, SUP-T1, read-out: Toxicity IC50, SupT1 (human T-cell lymphoblast cell line)): 0.6 µM
